pIC50: −log10 of the molar value. Like-named read-outs stand apart in the source and are kept apart here. Residues, ends and D or L forms follow the SMILES beside them.
Tested on: human red blood cells
Details: red cells of human

Work on `CC[C@H](C)[C@H](NC(=O)[C@H](CCC(=O)O)NC(=O)CNC(=O)[C@H](Cc1ccccc1)NC(=O)[C@H](CC(C)C)NC(=O)CNC(=O)[C@@H](N)CS)C(=O)N[C@@H](CCC(=O)O)C(=O)N[C@@H](CCC(=O)O)C(=O)N[C@@H](CC(C)C)C(=O)N[C@H](C(=O)N[C@@H](CCC(=O)O)C(=O)N[C@@H](CCC(=O)O)C(=O)NCC(=O)N[C@@H](CC(C)C)C(=O)N[C@@H](CCCCN)C(=O)N[C@@H](CC(N)=O)C(=O)N[C@@H](CC(C)C)C(=O)N[C@H](C(=O)N[C@@H](CC(=O)O)C(=O)N[C@@H](Cc1c[nH]c2ccccc12)C(=O)N[C@@H](Cc1c[nH]c2ccccc12)C(=O)N[C@@H](Cc1ccc(O)cc1)C(=O)NCC(=O)N[C@@H](Cc1ccc(O)cc1)C(=O)NCC(=O)N[C@@H](Cc1c[nH]cn1)C(=O)N[C@@H](CCCCN)C(=O)N[C@@H](CCCCN)C(=O)N[C@@H](Cc1c[nH]cn1)C(=O)N[C@@H](Cc1c[nH]cn1)C(=O)N[C@@H](CCC(N)=O)C(=O)N[C@@H](Cc1c[nH]cn1)C(=O)N[C@@H](CCCNC(=N)N)C(N)=O)[C@@H](C)CC)[C@@H](C)CC` [Peptide 62] (H-CGLFGEIEELIEEGLKNLIDWWYGYGHKKHHQHR-NH2) yielded a pIC50 (pH 5.5) of 5.89 and a pIC50 (pH 7.4) of less than 4.70.

`CC[C@H](C)[C@H](NC(=O)[C@H](CCC(=O)O)NC(=O)CNC(=O)[C@H](Cc1ccccc1)NC(=O)[C@H](CC(C)C)NC(=O)CNC(=O)[C@@H](N)CS)C(=O)N[C@@H](CCC(=O)O)C(=O)N[C@@H](CCC(=O)O)C(=O)N[C@@H](CC(C)C)C(=O)N[C@H](C(=O)N[C@@H](CCC(=O)O)C(=O)N[C@@H](CCC(=O)O)C(=O)NCC(=O)N[C@@H](CC(C)C)C(=O)N[C@@H](CCC(=O)O)C(=O)N[C@@H](CC(N)=O)C(=O)N[C@@H](CC(C)C)C(=O)N[C@H](C(=O)N[C@@H](CC(=O)O)C(=O)N[C@@H](Cc1c[nH]c2ccccc12)C(=O)N[C@@H](Cc1c[nH]c2ccccc12)C(=O)N[C@@H](Cc1ccc(O)cc1)C(=O)NCC(=O)N[C@@H](Cc1ccc(O)cc1)C(=O)NCC(=O)N[C@@H](CCCNC(=N)N)C(=O)N[C@@H](CCCCN)C(=O)N[C@@H](CCCCN)C(=O)N[C@@H](CCCNC(=N)N)C(=O)N[C@@H](CCCNC(=N)N)C(=O)N[C@@H](CCC(N)=O)C(=O)N[C@@H](CCCNC(=N)N)C(=O)N[C@@H](CCCNC(=N)N)C(N)=O)[C@@H](C)CC)[C@@H](C)CC` [Peptide 63] (H-CGLFGEIEELIEEGLENLIDWWYGYGRKKRRQRR-NH2) gave a pIC50 (pH 5.5) of 5.44 and a pIC50 (pH 7.4) of less than 4.70.

Compound `CC[C@H](C)[C@H](NC(=O)[C@H](CCC(=O)O)NC(=O)CNC(=O)[C@H](Cc1ccccc1)NC(=O)[C@H](CC(C)C)NC(=O)CNC(=O)[C@@H](N)CS)C(=O)N[C@@H](CCC(=O)O)C(=O)N[C@@H](CCC(=O)O)C(=O)N[C@@H](CC(C)C)C(=O)N[C@H](C(=O)N[C@@H](CCC(=O)O)C(=O)N[C@@H](CCC(=O)O)C(=O)NCC(=O)N[C@@H](CC(C)C)C(=O)N[C@@H](CCC(=O)O)C(=O)N[C@@H](CC(N)=O)C(=O)N[C@@H](CC(C)C)C(=O)N[C@H](C(=O)N[C@@H](CC(=O)O)C(=O)N[C@@H](Cc1c[nH]c2ccccc12)C(=O)N[C@@H](Cc1c[nH]c2ccccc12)C(=O)N[C@@H](Cc1ccc(O)cc1)C(=O)NCC(=O)N[C@@H](Cc1ccc(O)cc1)C(=O)NCC(=O)N[C@@H](Cc1c[nH]cn1)C(=O)N[C@@H](CCCCN)C(=O)N[C@@H](CCCCN)C(=O)N[C@@H](Cc1c[nH]cn1)C(=O)N[C@@H](Cc1c[nH]cn1)C(=O)N[C@@H](CCC(N)=O)C(=O)N[C@@H](Cc1c[nH]cn1)C(=O)N[C@@H](CCCNC(=N)N)C(N)=O)[C@@H](C)CC)[C@@H](C)CC` [Peptide 64] (H-CGLFGEIEELIEEGLENLIDWWYGYGHKKHHQHR-NH2) has a pIC50 (pH 5.5) of 5.41 and a pIC50 (pH 7.4) of less than 4.70.

`CC[C@H](C)[C@H](NC(=O)[C@H](CCC(=O)O)NC(=O)CNC(=O)[C@H](Cc1ccccc1)NC(=O)[C@H](CC(C)C)NC(=O)CNC(=O)[C@@H](N)CS)C(=O)N[C@@H](CCC(=O)O)C(=O)N[C@@H](CCC(=O)O)C(=O)N[C@@H](Cc1ccccc1)C(=O)N[C@H](C(=O)N[C@@H](CCC(=O)O)C(=O)N[C@@H](CCC(=O)O)C(=O)NCC(=O)N[C@@H](CC(C)C)C(=O)N[C@@H](CCC(=O)O)C(=O)N[C@@H](CC(N)=O)C(=O)N[C@@H](CC(C)C)C(=O)N[C@H](C(=O)N[C@@H](CC(=O)O)C(=O)N[C@@H](Cc1c[nH]c2ccccc12)C(=O)N[C@@H](Cc1c[nH]c2ccccc12)C(=O)N[C@@H](Cc1ccc(O)cc1)C(=O)NCC(=O)N[C@@H](Cc1ccc(O)cc1)C(=O)NCC(=O)N[C@@H](CCCNC(=N)N)C(=O)N[C@@H](CCCCN)C(=O)N[C@@H](CCCCN)C(=O)N[C@@H](CCCNC(=N)N)C(=O)N[C@@H](CCCNC(=N)N)C(=O)N[C@@H](CCC(N)=O)C(=O)N[C@@H](CCCNC(=N)N)C(=O)N[C@@H](CCCNC(=N)N)C(N)=O)[C@@H](C)CC)[C@@H](C)CC` [Peptide 65] (H-CGLFGEIEEFIEEGLENLIDWWYGYGRKKRRQRR-NH2) gave a pIC50 (pH 5.5) of 5.50 and a pIC50 (pH 7.4) of less than 4.70.

`CC[C@H](C)[C@H](NC(=O)[C@H](CCC(=O)O)NC(=O)CNC(=O)[C@H](Cc1ccccc1)NC(=O)[C@H](CC(C)C)NC(=O)CNC(=O)[C@@H](N)CS)C(=O)N[C@@H](CCC(=O)O)C(=O)N[C@@H](CCC(=O)O)C(=O)N[C@@H](Cc1ccccc1)C(=O)N[C@H](C(=O)N[C@@H](CCC(=O)O)C(=O)N[C@@H](CCC(=O)O)C(=O)NCC(=O)N[C@@H](Cc1c[nH]c2ccccc12)C(=O)N[C@@H](CCC(=O)O)C(=O)N[C@@H](CC(N)=O)C(=O)N[C@@H](Cc1ccccc1)C(=O)N[C@H](C(=O)N[C@@H](CC(=O)O)C(=O)N[C@@H](Cc1c[nH]c2ccccc12)C(=O)N[C@@H](Cc1c[nH]c2ccccc12)C(=O)N[C@@H](Cc1ccc(O)cc1)C(=O)NCC(=O)N[C@@H](Cc1ccc(O)cc1)C(=O)NCC(=O)N[C@@H](CCCNC(=N)N)C(=O)N[C@@H](CCCCN)C(=O)N[C@@H](CCCCN)C(=O)N[C@@H](CCCNC(=N)N)C(=O)N[C@@H](CCCNC(=N)N)C(=O)N[C@@H](CCC(N)=O)C(=O)N[C@@H](CCCNC(=N)N)C(=O)N[C@@H](CCCNC(=N)N)C(N)=O)[C@@H](C)CC)[C@@H](C)CC` [Peptide 66] (H-CGLFGEIEEFIEEGWENFIDWWYGYGRKKRRQRR-NH2) was tested, and the pIC50 (pH 5.5) was 5.39 and the pIC50 (pH 7.4) was less than 4.70.

`CC[C@H](C)[C@H](NC(=O)[C@H](CC(C)C)NC(=O)[C@H](CCC(=O)O)NC(=O)[C@H](CCC(=O)O)NC(=O)[C@@H](NC(=O)[C@H](CCC(=O)O)NC(=O)[C@H](CCC(=O)O)NC(=O)[C@H](Cc1ccccc1)NC(=O)[C@H](CC(C)C)NC(=O)CNC(=O)[C@@H](N)CS)[C@@H](C)CC)C(=O)N[C@@H](CCC(=O)O)C(=O)N[C@@H](CCC(=O)O)C(=O)NCC(=O)N[C@@H](CC(C)C)C(=O)N[C@@H](CCC(=O)O)C(=O)N[C@@H](CC(N)=O)C(=O)N[C@@H](CC(C)C)C(=O)N[C@H](C(=O)N[C@@H](CC(=O)O)C(=O)N[C@@H](Cc1c[nH]c2ccccc12)C(=O)N[C@@H](Cc1c[nH]c2ccccc12)C(=O)N[C@@H](Cc1ccc(O)cc1)C(=O)NCC(=O)N[C@@H](Cc1ccc(O)cc1)C(=O)NCC(=O)N[C@@H](CCCNC(=N)N)C(=O)N[C@@H](CCCCN)C(=O)N[C@@H](CCCCN)C(=O)N[C@@H](CCCNC(=N)N)C(=O)N[C@@H](CCCNC(=N)N)C(=O)N[C@@H](CCC(N)=O)C(=O)N[C@@H](CCCNC(=N)N)C(=O)N[C@@H](CCCNC(=N)N)C(N)=O)[C@@H](C)CC` [Peptide 68] (H-CGLFEEIEELIEEGLENLIDWWYGYGRKKRRQRR-NH2) showed a pIC50 (pH 5.5) of 5.39 and a pIC50 (pH 7.4) of less than 4.70.

Source: article PMC6600388 (2019)
